How the values were obtained:
WT mice [1] = experiment: Open field test in WT mice (WIN dose selection); format: in vivo, mouse; conditions: 13-week-old WT mice, WIN 1 and 4 mg/kg i.p., 10 days
Procedure: NOLT was conducted in a quadrangular open field (40 cm × 40 cm, 40 cm high) with a light intensity of 40 lx at controlled room conditions (19–22 °C, 40%–60% humidity). Mice were first habituated to the arena, which was devoid of objects but included spatial cues attached to the walls, for 15 min per session over two consecutive days. During this phase, spontaneous locomotor activity, as well as the time and the distance spent in the periphery versus the center, were measured. On the third day (NOLT training), two identical objects (A and A′) were placed in adjacent corners of the arena, and mice were allowed to explore for 10 min. […] Animal movements were tracked and recorded using the SMART® Junior software (Panlab, Spain). Exploration times were recorded to calculate the discrimination index as follows: discriminationindex=Timeexploringnovelobject-Timeexploringfamiliarobject/Timeexploringbothobjects×100\%
Exploration in the NORT followed the same conditions as described for the NOLT. […] During this phase, spontaneous locomotor activity and time/distance spent in the periphery versus the center of the arena were measured. […] Animal movements were tracked and recorded with the SMART® Junior software (Panlab, Spain). Exploration times were recorded and used to calculate the discrimination index as indicated above. […]

WT mice [2] = experiment: Novel object location task (NOLT) in WT mice (WIN dose selection); format: in vivo, mouse; conditions: 13-week-old WT mice, WIN 1 and 4 mg/kg i.p., 10 days
Procedure: NOLT was conducted in a quadrangular open field (40 cm × 40 cm, 40 cm high) with a light intensity of 40 lx at controlled room conditions (19–22 °C, 40%–60% humidity). Mice were first habituated to the arena, which was devoid of objects but included spatial cues attached to the walls, for 15 min per session over two consecutive days. During this phase, spontaneous locomotor activity, as well as the time and the distance spent in the periphery versus the center, were measured. On the third day (NOLT training), two identical objects (A and A′) were placed in adjacent corners of the arena, and mice were allowed to explore for 10 min. Twenty-four hours later (NOLT testing), the object A was placed in the same location, while a new object (A″) was placed in the diagonally opposite corner. During the testing phase, mice were allowed to explore for 5 min. The arena was thoroughly cleaned between trials to eliminate residual odors. Animal movements were tracked and recorded using the SMART® Junior software (Panlab, Spain). Exploration times were recorded to calculate the discrimination index as follows: discriminationindex=Timeexploringnovelobject-Timeexploringfamiliarobject/Timeexploringbothobjects×100\%
(§1) Given the observed reduction of CB1R in the R6/1 hippocampus, we hypothesized that pharmacological activation of the remaining CB1Rs could mitigate HD-related memory decline.

WT mice [3] = experiment: Novel object recognition task (NORT) in WT mice (WIN dose selection); format: in vivo, mouse; conditions: 13-week-old WT mice, WIN 1 and 4 mg/kg i.p., 10 days
Procedure: Exploration in the NORT followed the same conditions as described for the NOLT. Mice were first habituated to the arena, without objects, for 15 min on two consecutive days. During this phase, spontaneous locomotor activity and time/distance spent in the periphery versus the center of the arena were measured. On the third day (NORT training), mice were allowed to explore two identical objects (B and B′) for 10 min before being returned to their home cage. Twenty-four hours later (NORT testing), one of the familiar objects (B) and a new object (C) were placed in the same location as during the training session, and the mice were allowed to explore for 5 min. The arena was thoroughly cleaned between trials to prevent odor contamination. Animal movements were tracked and recorded with the SMART® Junior software (Panlab, Spain). Exploration times were recorded and used to calculate the discrimination index as indicated above.
as §1

WT mice [4] = experiment: Y-maze in WT mice (WIN dose selection); format: in vivo, mouse; conditions: 13-week-old WT mice, WIN 1 and 4 mg/kg i.p., 10 days
Procedure: Spontaneous working memory was assessed using the Y-maze test. Mice were habituated to the testing room 1 h prior to the session. During the 8-min trial, each mouse was placed in the center of the maze and allowed to move freely. An arm entry was recorded when all four paws of the mouse were within the arm. The apparatus was cleaned thoroughly after each trial. Alternation was defined as successive entries into all three arms in an overlapping triplet sequence. Spontaneous alternation was calculated as the ratio of actual alternations to the total possible alternations, and the result was expressed as a percentage.
as §1

CB1R = format: in vivo, mouse; conditions: hippocampus
Procedure: WT and R6/1 mice were deeply anesthetized with ketamine and xylazine (i.p injection; 100 mg/kg and 10 mg/kg, respectively) and immediately perfused transcardially with saline, followed by 4% paraformaldehyde in phosphate buffer. Brains were then removed, post-fixed overnight in the same solution, cryoprotected by immersion in 30% sucrose, and frozen in dry ice-cooled methylbutane. Serial coronal cryostat sections (30 μm) were collected through the entire brain in PBS as free-floating sections and processed as described previously [47].
Sections were rinsed three times in PBS, permeabilized, and blocked in PBS containing 0.3% Triton X-100 and 3% normal goat serum (Pierce Biotechnology, Rockford, IL) for 15 min at room temperature. […]
Stained coronal sections were examined using a Carl Zeiss LSM880 confocal microscope, a 10 × , 40 × and 63 × oil-immersion objective, 4 × digital zoom, and a standard Airy disc pinhole. For each mouse, at least three 30-µm thick coronal sections containing the hippocampal region were analyzed. […] The CB1R-, calbindin- and GAD67-integrated density was quantified with NIH ImageJ2 version 2.9.0/1.53t (Wayne Rasband, NIH). For double-positive quantification, Pearson’s correlation coefficient was calculated using ImageJ2. […]

[5] = tested on: mutant huntingtin (mHtt) aggregates; experiment: EM48 immunostaining of mutant huntingtin nuclear aggregates in hippocampus; format: in vivo, mouse; conditions: R6/1 mice, hippocampus (CA1), WIN 1 mg/kg i.p. vs vehicle
Procedure: Hippocampal coronal sections from vehicle- and WIN-treated R6/1 mice were first incubated for 30 min in ammonium chloride (NH4Cl) to quench endogenous fluorescence. They were then blocked for 1 h in PBS containing 0.3% Triton X-100 (Merck), 3% normal goat serum (Abcam), and 1% bovine serum albumin (BSA; Merck). After blocking, the sections were incubated overnight at 4 °C with anti-EM48 (1:1000, Merck). The EM48 antibody specifically recognizes huntingtin-containing nuclear aggregates by targeting the first 256 amino acids of human huntingtin protein [48]. […]
Imaging was performed using a Leica Confocal SP5 with a 63 × oil-immersion objective, ensuring consistent imaging conditions (pinhole size:1 AU, resolution: 1024 × 1024 pixels, and intensity). Automated quantification of nuclear huntingtin aggregates, including the number, intensity, and pixel area of EM48-stained nuclei in the hippocampus, was carried out using the ImageJ particle analysis plugin.
The density of aggregates was calculated as the ratio of the number of positive particles (NII) to the pixel area (mm^2). EM48 staining index (SI) was determined as the product of the mean number of stained nuclei and the average nuclear stain intensity, as described previously.

CB2R = experiment: Western blot of CB2R in total hippocampal lysates after sub-chronic WIN; format: in vivo, mouse; conditions: WIN 1 mg/kg i.p. 10 days
CA1 pyramidal neurons [6] = experiment: Golgi-Cox dendritic spine density analysis; format: in vivo, mouse; conditions: R6/1 mice, WIN 1 mg/kg i.p. sub-chronic
Procedure: Golgi-Cox impregnation was performed using the Rapid Golgistain Kit (FD Neurotechnologies, Columbia, MD) following the manufacturer's instructions. Mice were euthanized by cervical dislocation, and brains were rapidly removed. The two hemispheres were separated and incubated in a solution of A/B for 2 weeks. After this period, the brains were transferred to solution C for an additional 7 days. The brains were then processed using a cryostat to obtain 100-μm sections, which were mounted on gelatin-coated slides and left to dry for 24 h.
The sections were stained with the solutions provided in the kit and subsequently dehydrated before being mounted with DPX. Bright field images were acquired using a Leica AF6000 epifluorescence microscope with a × 63 numerical aperture objective for dendritic spine analysis. Segments of apical dendrites from hippocampal CA1 pyramidal neurons were selected for analysis. Dendritic spine density was manually quantified using the ImageJ Plug-in Cell Counter. Spines were marked in the appropriate focal plane preventing double counting, and only fully impregnated pyramidal neurons with their soma entirely within the thickness of the section were included. Dendritic segments ranging from 20 to 60 μm in length were analyzed. At least 60 dendrites per group from at least three mice per genotype were counted.

CA1 pyramidal neurons [7] = experiment: Ex vivo patch-clamp: depolarization-induced suppression of inhibition (DSI); format: in vivo, mouse; conditions: hippocampal slices of WIN-treated R6/1 mice, n = 17 neurons
adult rats = tested on: adult rats; design: method as in PMID 12888772; conditions: chronic treatment; cited from earlier work
[8] = tested on: rat model of cholinergic degeneration; design: method as in PMID 39489624; conditions: low-dose WIN; cited from earlier work
[9] = tested on: models of vascular dementia and ischemic injury; design: method as in PMID 36979335, PMID 29945070; conditions: cited from earlier work

With `Cc1c(C(=O)c2cccc3ccccc23)c2cccc3c2n1[C@H](CN1CCOCC1)CO3` [WIN, WIN 55212–2] the “time spent in the periphery and the center of the open field arena” value (WT mice [1]) was “No adverse effects”, the “total distance traveled during the open field test” value (WT mice [1]) was “No adverse effects” and the “spatial memory (NOLT)” value (WT mice [2]) was “no differences”. The “recognition memory (NORT)” value (WT mice [3]) was “no differences”, the “working memory (Y-maze)” value (WT mice [4]) was “no differences” and the “CB1R staining, immunohistochemistry” value (CB1R; Hdh^Q7/Q111 KI mice, sub-chronic WIN) was “restored to near WT levels”. For the same compound, the “CB1R levels, immunohistochemistry” value (CB1R; R6/1 mice, WIN 1 mg/kg i.p. 10 days) was “comparable to those of WT controls”, the “density of intranuclear mHtt inclusion” value [5] was “significant reduction” and the “CB2R levels, Western blot” value (CB2R; Hdh^Q7/Q111 KI mice 6 months) was “did not significantly affect”. The “CB2R levels, Western blot” value (CB2R; R6/1 mice 13 weeks) was “did not significantly affect”, the “apical dendritic spine density reduction in CA1 pyramidal neurons” value (CA1 pyramidal neurons [6]) was “reversed” and the “DSI: suppression of IPSC amplitude after 5-s depolarizing step (-70 to 0 mV)” value (CA1 pyramidal neurons [7]) was 52.70% ± 5.65. The “performance in novel object recognition test” value (adult rats) was “did not affect”, the “performance in open field test” value (adult rats) was “did not affect” and the “CB1R activity in the cortex” value [8] was “increase”. For the same compound, the cognitive performance [8] was “improved” and the neuroprotection [9] was “neuroprotective effects”.

From PMC12376758, “Restoration of CB1 receptor function in hippocampal GABAergic neurons rescues memory deficits in Huntington’s disease models” (Translational Neurodegeneration, 2025)
